Assay results as given in BindingDB's records for patent US12570607 (CSPC Zhongqi Pharmaceutical Technology (Shijiazhuang) Co., 2026).

Columns and labels:
Assay in all cases: Inhibitory Effect Assay
[1] = molecular target: Cyclin-dependent kinase 2 (Homo sapiens, UniProt P24941)
Description: (§1) A compound dissolved in DMSO (50 nL) was transferred to the kinase reaction plate by using acoustic technology (Echo). 5 μL of a CDK kinase dilution solution was added to the kinase reaction plate and incubated at room temperature for 10 minutes after centrifugation. 5 μL of a substrate premix solution was added to the plate, and the final concentrations of the substrate and the ATP in each well were shown in Table 1. After centrifugation, the reaction was performed at 30° C. for 120 minutes.

[2] = molecular target: Cyclin-dependent kinase 1 (Homo sapiens, UniProt P06493)
Description: as §1

[3] = molecular target: Cyclin-dependent kinase 6 (Homo sapiens, UniProt Q00534)
Description: as §1

[4] = molecular target: Cyclin-dependent kinase 5 (Homo sapiens, UniProt Q00535)
Description: as §1

[5] = molecular target: Cyclin-dependent kinase 7 (Homo sapiens, UniProt P50613)
Description: as §1

[6] = molecular target: Cyclin-dependent kinase 4 (Homo sapiens, UniProt P11802)
Description: as §1

[7] = molecular target: Cyclin-dependent kinase 9 (Homo sapiens, UniProt P50750)
Description: as §1

Cyclin-dependent kinase 9, sequence (P50750 whole entry): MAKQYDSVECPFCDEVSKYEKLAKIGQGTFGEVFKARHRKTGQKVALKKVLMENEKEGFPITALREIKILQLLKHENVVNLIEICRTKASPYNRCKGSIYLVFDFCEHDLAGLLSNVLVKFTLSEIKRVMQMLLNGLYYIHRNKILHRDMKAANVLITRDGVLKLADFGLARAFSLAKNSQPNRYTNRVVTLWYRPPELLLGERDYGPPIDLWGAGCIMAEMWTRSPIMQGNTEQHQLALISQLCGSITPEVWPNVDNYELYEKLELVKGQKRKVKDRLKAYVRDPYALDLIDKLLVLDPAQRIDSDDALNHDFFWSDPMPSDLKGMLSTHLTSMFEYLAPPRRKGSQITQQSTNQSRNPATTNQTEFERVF
Cyclin-dependent kinase 5, sequence (Q00535 whole entry): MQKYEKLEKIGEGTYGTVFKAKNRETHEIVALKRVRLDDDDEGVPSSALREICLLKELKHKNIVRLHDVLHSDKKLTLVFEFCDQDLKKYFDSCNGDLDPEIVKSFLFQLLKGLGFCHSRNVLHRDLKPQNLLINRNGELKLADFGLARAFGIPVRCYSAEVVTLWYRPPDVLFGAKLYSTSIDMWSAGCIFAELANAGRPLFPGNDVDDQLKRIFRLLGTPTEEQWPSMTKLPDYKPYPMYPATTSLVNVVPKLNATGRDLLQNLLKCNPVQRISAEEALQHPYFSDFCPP
Cyclin-dependent kinase 4, sequence (P11802 whole entry): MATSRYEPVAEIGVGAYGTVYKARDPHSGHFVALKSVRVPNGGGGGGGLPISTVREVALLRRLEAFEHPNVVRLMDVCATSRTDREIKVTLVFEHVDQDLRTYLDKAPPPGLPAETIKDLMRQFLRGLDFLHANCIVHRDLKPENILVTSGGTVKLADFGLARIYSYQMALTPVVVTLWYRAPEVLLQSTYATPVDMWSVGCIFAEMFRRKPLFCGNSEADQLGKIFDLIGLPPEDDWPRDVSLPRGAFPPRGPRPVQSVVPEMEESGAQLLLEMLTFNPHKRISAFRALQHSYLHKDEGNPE
Cyclin-dependent kinase 6, sequence (Q00534 whole entry): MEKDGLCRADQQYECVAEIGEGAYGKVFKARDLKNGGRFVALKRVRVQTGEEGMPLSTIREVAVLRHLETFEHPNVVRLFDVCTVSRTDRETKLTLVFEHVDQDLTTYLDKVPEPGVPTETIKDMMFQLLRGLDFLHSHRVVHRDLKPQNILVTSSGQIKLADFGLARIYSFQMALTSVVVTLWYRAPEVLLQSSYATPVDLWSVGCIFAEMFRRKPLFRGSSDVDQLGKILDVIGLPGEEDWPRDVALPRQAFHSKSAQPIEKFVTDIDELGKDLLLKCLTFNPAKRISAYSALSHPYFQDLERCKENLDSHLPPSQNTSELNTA
Cyclin-dependent kinase 7, sequence (P50613 whole entry): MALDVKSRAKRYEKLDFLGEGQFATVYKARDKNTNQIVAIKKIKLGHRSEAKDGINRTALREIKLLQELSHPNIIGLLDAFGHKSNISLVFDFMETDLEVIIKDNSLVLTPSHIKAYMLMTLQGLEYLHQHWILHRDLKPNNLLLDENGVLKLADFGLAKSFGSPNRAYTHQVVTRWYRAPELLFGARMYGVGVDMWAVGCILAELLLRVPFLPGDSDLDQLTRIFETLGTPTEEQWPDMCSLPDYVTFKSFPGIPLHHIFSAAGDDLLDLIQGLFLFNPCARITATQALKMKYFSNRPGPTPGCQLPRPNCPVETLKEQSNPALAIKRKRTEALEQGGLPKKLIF
Cyclin-dependent kinase 1, sequence (P06493 whole entry): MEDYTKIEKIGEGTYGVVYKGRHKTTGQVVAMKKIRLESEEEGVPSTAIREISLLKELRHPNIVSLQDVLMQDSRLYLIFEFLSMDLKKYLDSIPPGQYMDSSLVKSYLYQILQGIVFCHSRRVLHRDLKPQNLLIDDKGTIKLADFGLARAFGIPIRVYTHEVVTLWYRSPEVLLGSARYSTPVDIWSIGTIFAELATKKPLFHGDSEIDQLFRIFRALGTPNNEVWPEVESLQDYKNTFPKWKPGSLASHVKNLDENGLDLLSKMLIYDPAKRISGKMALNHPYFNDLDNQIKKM

Structure (SMILES) | IC50 [1] [nM] | IC50 [2] [nM] | IC50 [3] [nM] | IC50 [4] [nM] | IC50 [5] [nM] | IC50 [6] [nM] | IC50 [7] [nM]
COc1ccccc1-c1cc(NC(=O)[C@H]2CCC[C@@H](NC(C)=O)C2)ncc1F [US12570607, Example 17] | 1440 | 193 | 3170 | 357 | 5480 | 474 | 7.12
COc1cc(F)ccc1-c1cc(NC(=O)[C@H]2CCC[C@@H](NC(=O)[C@H](C)O)C2)ncc1F [US12570607, Example 48] | – | 133 | 3630 | 301 | 2150 | 767 | 6.84
COc1cc(F)ccc1-c1cc(NC(=O)[C@H]2CCC[C@@H](NC(=O)Nc3cc(C)no3)C2)ncc1F [US12570607, Example 41] | 1250 | 196 | 4980 | 361 | 1080 | 629 | 7.65
COc1cc(F)ccc1-c1cc(NC(=O)[C@H]2CCC[C@@H](NS(C)(=O)=O)C2)ncc1F [US12570607, Example 25] | 2050 | 265 | 2360 | 716 | 4360 | 811 | 7.54
COC(=O)N[C@@H]1CCC[C@H](C(=O)Nc2cc(-c3ccc(F)cc3OC)c(F)cn2)C1 [US12570607, Example 36] | 558 | 97 | 3370 | 209 | 3720 | 630 | 6.88
COc1cc(F)ccc1-c1cc(NC(=O)[C@H]2CCC[C@@H](NC(=O)c3ccccn3)C2)ncc1F [US12570607, Example 43] | 823 | 80 | 3080 | 296 | 2410 | 582 | 7.17
COc1cc(F)ccc1-c1cc(NC(=O)[C@H]2CCC[C@@H](NC(=O)CC#N)C2)ncc1F [US12570607, Example 32] | 1070 | 86.7 | 2450 | 329 | 1650 | 353 | 6.86
CNC(=O)N[C@@H]1CCC[C@H](C(=O)Nc2cc(-c3ccc(F)cc3OC)c(F)cn2)C1 [US12570607, Example 37] | 688 | 82 | 2640 | 248 | – | 361 | 6.44
COc1cc(F)ccc1-c1cc(NC(=O)[C@H]2CCC[C@@H](NC(=O)CO)C2)ncc1F [US12570607, Example 45] | 564 | 93.2 | 2790 | 284 | 4440 | 785 | 6.92
COc1cc(F)c(F)cc1-c1cc(NC(=O)[C@H]2CCC[C@@H](NC(=O)CO)C2)ncc1F [US12570607, Example 68] | 274 | 73.6 | 2030 | 162 | 2630 | 402 | 5.55
CC(=O)N[C@@H]1CCC[C@H](C(=O)Nc2cc(-c3ccc(F)cc3OC(C)C)c(F)cn2)C1 [US12570607, Example 8] | 991 | 214 | 1770 | 614 | > 9900 | 273 | 7.21

More lines, in order of falling IC50 [3], values ahead:

IC50 [1] [nM] | IC50 [2] [nM] | IC50 [3] [nM] | IC50 [4] [nM] | IC50 [5] [nM] | IC50 [6] [nM] | IC50 [7] [nM] | Structure (SMILES)
761 | 78.8 | 1760 | 168 | 1260 | 395 | 6.68 | COc1cc(F)ccc1-c1cc(NC(=O)[C@H]2CCC[C@@H](NC(=O)C3(C#N)CC3)C2)ncc1F [US12570607, Example 33]
2120 | 262 | 1390 | 721 | 6210 | – | 16.8 | COc1cc(F)ccc1-c1cc(NC(=O)C2CCCC(NC(C)=O)C2)ncc1F (stereo unspecified) [US12570607, Example 3]
475 | – | 1120 | – | 2750 | 429 | 7.9 | COc1cc(F)ccc1-c1cc(NC(=O)[C@H]2CCC[C@@H](NC(C)=O)C2)ncc1F [US12570607, Example 5]
253 | 72.6 | 1010 | 140 | – | 184 | 6.66 | COc1cc(F)ccc1-c1cc(NC(=O)[C@H]2CCC[C@@H](NC(=O)C(F)(F)F)C2)ncc1F [US12570607, Example 42]
392 | – | 600 | 82.9 | 1420 | 268 | 5.45 | COc1cc(F)c(F)cc1-c1cc(NC(=O)[C@H]2CCC[C@@H](NC(=O)C3(C#N)CC3)C2)ncc1F [US12570607, Example 67]
638 | 87.1 | 297 | – | 1170 | 196 | 7.65 | CC(=O)N[C@@H]1CCC[C@H](C(=O)Nc2cc(-c3cccc4ccoc34)c(F)cn2)C1 [US12570607, Example 19]
